Measurements published in ChEMBL document CHEMBL5375988, “AcGlcAs: A Novel P53-Targeting Arsenical with Potent Cellular Uptake and Cancer Cell Selectivity” (J Med Chem, 2023).
Calls of active or inactive are those of the source. The rule behind the calls is not given here.

Tests used:
U-937 [1] = assay: Induction of extrinsic apoptosis in human U-937 cells overexpressing p53-V272M mutant assessed as upregulation of PERP gene expression by RT-qPCR analysis; assay type: functional, cell-based
NCI-H1299 [2] = assay: Upregulation of PUMA mRNA expression in human NCI-H1299 cells overexpressing p53-V272M mutant at 2 uM pretreated for 1 hr followed by culturing in fresh medium for 8 hrs by RT-qPCR analysis; assay type: functional, cell-based
[3] = Drug uptake in human U-937 cells assessed as fold increase in arsenic accumulation at 10 uM incubated for 10 mins by ICP-MS analysis; assay type: ADME, cell-based; details: u-937, 10 min
[4] = Drug uptake in human HepG2 cells assessed as arsenic localization in nucleus at 10 uM incubated for 1 hr by ICP-MS analysis; assay type: ADME, cell-based; details: hepg2, 1 h
HL-60 = assay: Upregulation of MDM2 protein expression in human HL-60 cells overexpressing p53-V272M mutant pretreated for 1 hr followed by culturing in fresh medium for 16 hrs by Western blot analysis; assay type: functional, cell-based
[5] = tested on: Cellular tumor antigen p53 (Homo sapiens), P04637 [V272M]; assay: Restoration of p53-V272M mutant transcriptional activity on PUMA promoter in human NCI-H1299 cells harboring siRNA-mediated CLIC1 knockdown incubated for 24 hrs by firefly/renilla based luciferase reporter assay; assay type: cell-based
[6] = Toxicity in M-NSG mouse xenografted with luciferase transduced human U-937 cells harboring p53 V272M mutant assessed as reduction in body weight at 10 mg/kg, iv measured for 8 days post administration; assay type: organism-based; details: in vivo, 192 h, time 8 day
[7] = tested on: Cellular tumor antigen p53 (Homo sapiens), P04637 [V272M]; assay: Rescue of p53-V272M mutant transcriptional activity on PUMA promoter in human NCI-H1299 cells assessed as fold change in transcriptional activity at 10 uM pretreated for 10 mins to1 hr followed by replacement with fresh culture media and measured after 24 hrs by firefly/renilla based luciferase reporter assay; assay type: cell-based; details: filed as activator, time 10-60 min
U-937 [8] = assay: Induction of apoptosis in human U-937 cells harboring p53-V272M mutant assessed as increase in late apoptotic cells at 0.5 to 8 uM pretreated for 1 hr followed by culturing in fresh medium for 24 hrs by Annexin V-FITC/7AAD staining based flow cytometry analysis; assay type: functional, cell-based; details: dose 0.5-8 µM
[9] = tested on: Cellular tumor antigen p53 (Homo sapiens), P04637 [V272M]; assay: Rescue of p53-V272M mutant transcriptional activity on PUMA promoter in human NCI-H1299 cells at 0.3 to 10 uM pretreated for 10 mins to1 hr followed by replacement with fresh culture media and measured after 24 hrs by firefly/renilla based luciferase reporter assay; assay type: cell-based; details: filed as activator, dose 0.3-10 µM, time 10-60 min
[10] = tested on: Cellular tumor antigen p53 (Homo sapiens), P04637 [V272M]; assay: Restoration of p53-V272M mutant transcriptional activity on PUMA promoter in human NCI-H1299 cells harboring siRNA-mediated CKAP4 knockdown incubated for 24 hrs by firefly/renilla based luciferase reporter assay; assay type: cell-based
NCI-H1299 [11] = assay: Upregulation of p21 protein expression in human NCI-H1299 cells overexpressing p53-V272M mutant pretreated for 1 hr followed by culturing in fresh medium for 16 hrs by Western blot analysis; assay type: functional, cell-based
[12] = Drug accumulation in ICR mouse liver at 10 mg/kg, iv measured upto 24 hrs by ICP-MS analysis; assay type: ADME, organism-based; details: in vivo
NCI-H1299 [13] = assay: Upregulation of MDM2 protein expression in human NCI-H1299 cells overexpressing p53-V272M mutant pretreated for 1 hr followed by culturing in fresh medium for 16 hrs by Western blot analysis; assay type: functional, cell-based
U-937 [14] = assay: Induction of apoptosis in human U-937 cells harboring p53-V272M mutant assessed as increase in early apoptotic cells at 0.5 to 8 uM pretreated for 1 hr followed by culturing in fresh medium for 24 hrs by Annexin V-FITC/7AAD staining based flow cytometry analysis; assay type: functional, cell-based; details: dose 0.5-8 µM
[15] = biological target: T1, PML-RARalpha (Homo sapiens) (UniProt P10276+P29590); assay: Induction of PML/RARalpha degradation in human NB4 cells assessed as downregulation of P2RY2 mRNA expression incubated for 1 hrs followed by replacement with fresh culture medium for 6 hrs by RT-qPCR analysis; assay type: cell-based; details: dose 0.3-3 µM
[16] = tested on: Cellular tumor antigen p53 (Homo sapiens), P04637 [V272M]; assay: Restoration of p53-V272M mutant transcriptional activity on PUMA promoter in human NCI-H1299 cells at 2.5 to 10 uM pretreated with chlorpromazine for 30 mins followed by compound addition for 10 mins and further incubation in fresh medium for 24 hrs by firefly/renilla based luciferase reporter assay; assay type: cell-based; details: dose 2.5-10 µM
[17] = biological target: T1, PML-RARalpha (Homo sapiens); assay: Induction of PML/RARalpha degradation in human NB4 cells assessed as appearance of large PML speckles characteristic of normal nuclear bodies at 3 uM incubated for 1 hrs followed by replacement with fresh culture medium and measured after 0.5 to 24 hrs by immunofluorescence analysis; assay type: cell-based
[18] = tested on: Cellular tumor antigen p53 (Homo sapiens), P04637 [V272M]; assay: Restoration of p53-V272M mutant transcriptional activity on PUMA promoter in human NCI-H1299 cells at 2.5 to 10 uM pretreated with methyl-beta-cyclodextrin for 30 mins followed by compound addition for 10 mins and further incubation in fresh medium for 24 hrs by firefly/renilla based luciferase reporter assay; assay type: cell-based; details: dose 2.5-10 µM
NB-4 [19] = assay: Induction of apoptosis in human NB4 cells assessed as viable cells at 3 uM preincubated for 1 hrs followed by replacement with fresh culture medium and measured after 24 hrs by Annexin V-FITC/7AAD staining based flow cytometry assay (reference value: 94%); assay type: functional; details: read-out: Activity
NB-4 [20] = assay: Inhibition of colony formation in human NB4 cells at 1 to 9 uM pretreated for 1 hr followed by washout and cultured in soft agar containing fresh medium for 18 days by crystal violet staining based assay; assay type: functional, cell-based; details: dose 1-9 µM
U-937 [21] = assay: Antitumor activity against human U-937 cells harboring p53 V272M mutant xenografted in M-NSG mouse assessed as median survival at 25 mg/kg, ip administered daily for 11 days (reference value: 11 day); assay type: functional
U-937 [22] = assay: Antitumor activity against GFP-tagged human U-937 cells harboring p53 V272M mutant xenografted in M-NSG mouse assessed as delay in spleen swelling at 25 mg/kg, ip administered for 9 days starting from 7 days post inoculation and measured on day 9 by FACS analysis; assay type: functional, organism-based; details: time 9.0 day
[23] = Drug uptake in HFL1 cells at 10 uM measured after 10 mins by ICP-MS analysis; assay type: ADME, cell-based; details: human, hfl1, 10 min
NB-4 [24] = assay: Induction of granulocytic differentiation in human NB4 cells assessed as CD11b positive cells at 3 uM incubated for 1 hrs followed by replacement with fresh culture medium for 48 hrs by flow cytometry analysis relative to control; assay type: functional
[25] = Toxicity in M-NSG mouse xenografted with human U-937 cells harboring p53 V272M mutant assessed as reduction in body weight at 25 mg/kg, ip administered for 11 days and measured on day 18; assay type: organism-based; details: in vivo, 432 h, time 18 day
[26] = Plasma stability in mouse assessed as half life at […] measured upto 120 mins by LC-MS analysis; assay type: ADME, cell-free
NCI-H1299 [27] = assay: Inhibition of colony formation in human NCI-H1299 cells harboring p53-V272M mutant at 2 to 32 uM pretreated for 1 hr followed by culturing in fresh medium and measured on day 7 by crystal violet staining based assay; assay type: functional, cell-based; details: dose 2-32 µM

T1 sequence (P10276 whole entry, looked up): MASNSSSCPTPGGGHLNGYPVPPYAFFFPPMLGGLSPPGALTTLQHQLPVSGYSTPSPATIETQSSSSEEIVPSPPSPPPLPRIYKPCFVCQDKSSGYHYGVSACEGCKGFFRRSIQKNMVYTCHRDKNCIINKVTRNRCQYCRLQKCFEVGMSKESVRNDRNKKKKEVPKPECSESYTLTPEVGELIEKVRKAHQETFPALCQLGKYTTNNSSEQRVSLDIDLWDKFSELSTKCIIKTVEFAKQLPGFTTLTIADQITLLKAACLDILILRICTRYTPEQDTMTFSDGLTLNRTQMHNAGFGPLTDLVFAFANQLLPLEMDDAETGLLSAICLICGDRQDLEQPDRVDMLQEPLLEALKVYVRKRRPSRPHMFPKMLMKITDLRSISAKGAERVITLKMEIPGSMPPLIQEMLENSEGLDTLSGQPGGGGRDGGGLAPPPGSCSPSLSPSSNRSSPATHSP
T1 sequence (P29590 whole entry, looked up): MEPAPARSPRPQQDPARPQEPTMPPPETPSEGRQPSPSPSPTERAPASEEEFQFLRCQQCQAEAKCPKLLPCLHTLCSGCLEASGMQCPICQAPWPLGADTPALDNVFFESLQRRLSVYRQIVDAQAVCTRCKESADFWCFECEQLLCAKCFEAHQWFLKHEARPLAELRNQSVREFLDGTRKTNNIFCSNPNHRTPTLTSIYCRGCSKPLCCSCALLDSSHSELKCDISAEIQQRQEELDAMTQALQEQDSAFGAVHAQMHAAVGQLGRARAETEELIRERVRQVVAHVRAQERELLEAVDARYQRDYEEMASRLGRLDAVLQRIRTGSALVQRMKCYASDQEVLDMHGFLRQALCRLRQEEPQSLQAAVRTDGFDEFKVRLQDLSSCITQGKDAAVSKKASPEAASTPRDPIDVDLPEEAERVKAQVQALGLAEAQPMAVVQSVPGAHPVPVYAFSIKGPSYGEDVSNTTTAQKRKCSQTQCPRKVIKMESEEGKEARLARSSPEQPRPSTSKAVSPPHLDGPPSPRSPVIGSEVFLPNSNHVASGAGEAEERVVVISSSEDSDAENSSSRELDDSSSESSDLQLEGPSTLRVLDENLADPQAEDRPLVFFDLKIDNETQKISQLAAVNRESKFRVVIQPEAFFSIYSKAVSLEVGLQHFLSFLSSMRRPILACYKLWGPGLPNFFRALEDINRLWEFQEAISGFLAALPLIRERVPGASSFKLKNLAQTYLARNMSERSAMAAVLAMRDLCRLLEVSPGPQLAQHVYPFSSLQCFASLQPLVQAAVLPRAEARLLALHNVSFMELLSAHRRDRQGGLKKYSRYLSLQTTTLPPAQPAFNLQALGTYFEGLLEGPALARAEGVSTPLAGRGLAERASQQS

With `CC(=O)OC[C@H]1O[C@@H](S[As]2SCCS2)[C@H](OC(C)=O)[C@@H](OC(C)=O)[C@@H]1OC(C)=O` the Activity (U-937 [1]) was “inactive”, the Activity (NCI-H1299 [2]) was “Active” and the “fold change (FC)” value [3] was 19. For the same molecule, the Drug uptake [4] was “Active”, the Activity (HL-60) was “Active” and the Activity [5] was “inactive”. The Activity [6] was “Non-Toxic”, the fold change (FC) [7] was 112 and the Activity (U-937 [8]) was “Active”. The Activity [9] was “Active”, the Activity [10] was “inactive” and the Activity (NCI-H1299 [11]) was “Active”. For the same molecule, the Drug uptake [12] was “Active”, the Activity (NCI-H1299 [13]) was “Active” and the Activity (U-937 [14]) was “Active”. For the same molecule, the Activity [15] was “Dose-Dependent Effect”, the Activity [16] was “inactive” and the Activity [17] was “Active”. For the same molecule, the Activity [18] was “inactive”, the viability at 3 µM (NB-4 [19]) was 91.1% and the inhibition (NB-4 [20]) was “Active”. For the same molecule, the MST (U-937 [21]) was 18 days, the Activity (U-937 [22]) was “Active” and the Drug uptake [23] was “Active”. The Activity (NB-4 [24]) was 32.9%, the Activity [25] was “Non-Toxic” and the half-life [26] was 13.4 min. For the same molecule, the inhibition (NCI-H1299 [27]) was “Active”.
